In patent US8883782B2, “Spiro-tetracyclic ring compounds as beta-secretase modulators and methods of use” (Amgen Inc., priority 2010, dated 2014):
Where two headings read alike, the source gives them in different places.

What was measured:
[1] = system: Aβ40 in conditioned medium of cells stably expressing Amyloid Precursor Protein (APP); experiment: In vitro BACE cell-based assay (Aβ40 in conditioned medium, sandwich ELISA); conditions: read-out: HEK cell assay
Summary of the method: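 Conditioned medium from stably APP-expressing cells treated with compound dose series is assayed for Aβ40 by sandwich ELISA with time-resolved fluorescence detection. IC50 is calculated from percent inhibition of Aβ40 against compound concentration.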

[2] = biological target: Beta Secretase enzyme (BACE) (Homo sapiens, UniProt P56817); experiment: In vitro enzymatic BACE FRET (fluorescence resonance energy transfer) assay; format: biochemical; conditions: average IC50, enzyme assay; read-out: BACE 1 FRET assay
Summary of the method: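 Buffer 0.05 M acetate pH 4.2, 10% DMSO final, 100 uM genapol (sub-CMC); start with 50 nM FRET substrate; 1 h incubation; Tris stop; fluorescence read.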

[3] = system: Abeta 40 in cerebrospinal fluid (CSF) and brain; experiment: In vivo inhibition of beta-secretase (Abeta 40 reduction in CSF and brain); conditions: rat, after 4 hrs; for inhibition in vivo at 3 mg/kg: Abeta 40, 3 mpk; for inhibition in vivo at 10 mg/kg: Abeta 40, 10 mg/kg (10 mpk)
Text: In Vivo Inhibition of Beta-Secretase
Several animal models, including mouse, rat, dog, and monkey, may be used to screen for inhibition of beta-secretase activity in vivo following administration of a test compound sample. Animals used in this invention can be wild type, transgenic, or gene knockout animals. […] A separate group of animals receive 2% hydroxypropyl methylcellulose, 1% Tween80 alone, containing no test compound, and serve as a vehicle-control group. At the end of the test period, animals are sacrificed and brain tissues, plasma or cerebrospinal fluid are collected. […] Homogenates are centrifuged at 355,000 g, 4° C. for 30 minutes. CSF or brain supernatants are then analyzed for the presence of A-beta peptide by specific sandwich ELISA assays based on ECL (Electrochemiluminescence) technology. For example, rat Abeta40 is measured using biotinylated-4G8 (Signet) as a capture antibody and Fab40 (an in-house antibody specific to the C-terminal of Abeta40) as a detection antibody.
Actual vehicles used: Oral: 2% HPMC, 1% Tween80, pH 2.2

[4] = Homo sapiens, HEK293, average IC50, HEK cells
[5] = CSF, read-out: CSF A-beta reduction % at 3 mpk
[6] = brain, read-out: Brain A-beta reduction % at 3 mpk
[7] = Homo sapiens, HEK293, average IC50
[8] = CSF, read-out: CSF A-beta reduction % at 10 mg/kg
[9] = brain, read-out: Brain A-beta reduction % at 10 mg/kg

Sequence of Beta Secretase enzyme (BACE) (P56817 46-501, species assumed): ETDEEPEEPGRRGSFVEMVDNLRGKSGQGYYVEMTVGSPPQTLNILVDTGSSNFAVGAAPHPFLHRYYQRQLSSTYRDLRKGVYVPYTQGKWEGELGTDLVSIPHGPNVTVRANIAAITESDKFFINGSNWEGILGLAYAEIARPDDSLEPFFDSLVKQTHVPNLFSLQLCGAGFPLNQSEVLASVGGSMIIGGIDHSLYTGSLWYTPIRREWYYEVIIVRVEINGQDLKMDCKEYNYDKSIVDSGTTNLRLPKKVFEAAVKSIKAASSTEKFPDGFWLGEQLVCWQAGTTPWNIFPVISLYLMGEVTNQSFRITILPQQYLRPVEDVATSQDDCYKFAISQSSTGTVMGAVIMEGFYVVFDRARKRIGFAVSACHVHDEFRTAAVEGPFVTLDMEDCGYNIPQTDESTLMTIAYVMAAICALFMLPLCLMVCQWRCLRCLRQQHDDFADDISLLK

| SMILES | IC50 [1, 4] [nM] | IC50 [2] [nM] | inhibition in vivo at 3 mg/kg [3, 5] [%] | inhibition in vivo at 3 mg/kg [3, 6] [%] | IC50 [1, 7] [nM] | inhibition in vivo at 10 mg/kg [3, 8] [%] | inhibition in vivo at 10 mg/kg [3, 9] [%] | IC50 ([1]; average IC50, HEK cells) [nM] |
| --- | --- | --- | --- | --- | --- | --- | --- | --- |
| NC1=N[C@@]2(CO1)c1cc(-c3c(F)ccnc3F)ccc1Oc1cnc(C3=CCCOC3)cc12 [Example 676, (5S)-7-(2,4-difluoro-3-pyridinyl)-3-(5,6-dihydro-2H-pyran-3-yl)spiro[chromeno[2,3-c]pyridine-5,4′-[1,3]oxazol]-2′-amine] | 6 | 0.6 | 76 | 74 | – | – | – | – |
| CC(F)(F)COc1cc(F)c2c(c1)[C@]1(CSC(N)=N1)c1cc(-c3cccnc3F)ccc1O2 [Example 724, (4S)-2′-(2,2-difluoropropoxy)-4′-fluoro-7′-(2-fluoro-3-pyridinyl)spiro[1,3-thiazole-4,9′-xanthen]-2-amine] | – | 1 | – | – | 22 | 42 | 27 | – |
| NC1=N[C@@]2(CO1)c1cc(-c3cccnc3)ccc1Oc1c2cc(C2=CCCOC2)nc1F [Example 745, (5S)-3-(5,6-dihydro-2-H-pyran-3-yl)-1-fluoro-7-(3-pyridinyl)spiro[chromeno[2,3-c]pyridine-5-4′-[1,3]oxazol]-2′-amine] | – | 0.4 | – | – | 4 | 78 | 69 | – |
| CC#Cc1cncc(-c2ccc3c(c2)[C@@]2(COC(N)=N2)c2cc(-c4cccnc4)nc(F)c2O3)c1 [Example 759, (S)-1-fluoro-7-(5-(prop-1-ynyl)pyridin-3-yl)-3-(pyridin-3-yl)-5′H-spiro[chromeno[2,3-c]pyridine-5,4′-oxazol]-2′-amine] | – | 0.4 | 43 | 43 | 3 | – | – | – |
| NC1=N[C@@]2(CS1)c1cc(-c3cccnc3F)ccc1Oc1c(F)cc(C3=CCCOC3)cc12 [Example 802, (S)-2′-(5,6-dihydro-2H-pyran-3-yl)-4′-fluoro-7′-(2-fluoropyridin-3-yl)-5H-spiro[thiazole-4,9′-xanthen]-2-amine] | – | 0.2 | – | – | 12 | 69 | 57 | – |
| COc1nc(-c2ccnc(F)c2)cc2c1Oc1ccc(-c3cccnc3)cc1[C@@]21COC(N)=N1 [Example 839, (S)-3-(2-fluoropyridin-4-yl)-1-methoxy-7-(pyridin-3-yl)-5′H-spiro[chromeno[2,3-c]pyridine-5,4′-oxazol]-2′-amine] | – | 2.1 | – | – | 11 | 37 | 23 | – |
| CC(C)(C#N)COc1cc(F)c2c(c1)[C@]1(COC(N)=N1)c1cc(-c3cccnc3)c(F)cc1O2 [Example 860, (S)-3-(2-amino-3′,5′-difluoro-2′-(pyridin-3-yl)-5H-spiro[oxazole-4,9′-xanthene]-7′-yloxy)-2,2-dimethylpropanenitrile] | 10 | 0.7 | – | – | – | 0 | 2 | – |
| NC1=N[C@@]2(CO1)c1cc(-c3cncc(F)c3)ccc1Oc1c2cc(N2CCOCC2)nc1F [Example 893, (5S)-1-fluoro-7-(5-fluoro-3-pyridinyl)-3-(4-morpholinyl)spiro[chromeno[2,3-c]pyridine-5,4′-[1,3]oxazol]-2′-amine] | 7 | 0.3 | – | – | – | 76 | 70 | – |
| N#Cc1cccc(-c2ccc3c(c2)[C@@]2(COC(N)=N2)c2cc(N4CCOCC4)nc(F)c2O3)c1 [Example 894, 3-((5S)-2′-amino-1-fluoro-3-(4-morpholinyl)spiro[chromeno[2,3-c]pyridine-5,4′-[1,3]oxazol]-7-yl)benzonitrile] | 10 | 0.3 | – | – | – | 75 | 69 | – |
| CC1(C#Cc2cc3c(nc2F)Oc2ccc(-c4cccnc4F)cc2[C@@]32COC(N)=N2)COC1 [Example 901, (5S)-2-fluoro-7-(2-fluoro-3-pyridinyl)-3-((3-methyl-3-oxetanyl)ethynyl)spiro[chromeno[2,3-b]pyridine-5,4′-[1,3]oxazol]-2′-amine] | – | 0.5 | – | – | – | 56 | 44 | 11 |
| NC1=N[C@@]2(CO1)c1cc(-c3cccnc3)ccc1Oc1c2cc(N2CCC(F)(F)C2)nc1F [Example 916, (S)-3-(3,3-difluoropyrrolidin-1-yl)-1-fluoro-7-(pyridin-3-yl)-5′-H-spiro[chromeno[2,3-c]pyridine-5,4′-oxazol]-2′-amine] | 5 | 0.4 | – | – | – | 61 | 44 | – |
| NC1=N[C@@]2(CO1)c1cc(-c3cncc(F)c3)ccc1Oc1c2cc(N2CCC(F)(F)C2)nc1F [Example 922, (S)-3-(3,3-difluoropyrrolidin-1-yl)-1-fluoro-7-(5-fluoropyridin-3-yl)-5′-H-spiro[chromeno[2,3-c]pyridine-5,4′-oxazol]-2′-amine] | 9 | 0.4 | 69 | 57 | – | – | – | – |
| NC1=N[C@@]2(CO1)c1cc(-c3cncc(F)c3)ccc1Oc1c2cc(N2CCC(F)(F)CC2)nc1F [Example 927, (S)-3-(4,4-difluoropiperidin-1-yl)-1-fluoro-7-(5-fluoropyridin-3-yl)-5′-H-spiro[chromeno[2,3-c]pyridine-5,4′-oxazol]-2′-amine] | 10 | 0.3 | – | – | – | 70 | 65 | – |
| NC1=N[C@@]2(CS1)c1cc(-c3cccnc3F)ccc1Oc1cnc(C3=CCCOC3)cc12 [Example 928, (S)-3-(5,6-dihydro-2H-pyran-3-yl)-7-(2-fluoropyridin-3-yl)-5′H-spiro[chromeno[2,3-c]pyridine-5,4′-thiazol]-2′-amine] | 8 | 0.4 | – | – | – | 82 | 71 | – |
| CC#Cc1cncc(-c2ccc3c(c2)[C@@]2(COC(N)=N2)c2cc(C4=CCOCC4)cnc2O3)c1 [Example 942, (S)-3-(3,6-dihydro-2H-pyran-4-yl)-7-(5-(prop-1-ynyl)pyridin-3-yl)-5′H-spiro[chromeno[2,3-b]pyridine-5,4′-oxazol]-2′-amine] | 1 | 0.4 | 57 | 42 | – | – | – | – |
| CC#Cc1cncc(-c2ccc3c(c2)[C@@]2(COC(N)=N2)c2cc(-c4cnn(C)c4)cc(F)c2O3)c1 [Example 947, (S)-4′-fluoro-2′-(1-methyl-1H-pyrazol-4-yl)-7′-(5-(prop-1-ynyl)pyridin-3-yl)-5H-spiro[oxazole-4,9′-xanthen]-2-amine] | 4 | 0.4 | 22 | 25 | – | – | – | – |
| CC#Cc1cncc(-c2ccc3c(c2)[C@@]2(COC(N)=N2)c2cc(C#CC(C)(C)O)cc(F)c2O3)c1 [Example 951, (S)-4-(2-amino-5′-fluoro-2′-(5-(prop-1-ynyl)pyridin-3-yl)-5H-spiro[oxazole-4,9′-xanthene]-7′-yl)-2-methylbut-3-yn-2-ol] | 4 | 0.6 | 17 | 13 | – | – | – | – |
